Source: US20180344725A1, “QUINOLONE CHALCONE COMPOUNDS AND USES THEREOF” (priority 2015, published 2018)

Assays:
MDA-MB231TaxR = assay: SRB-based cytotoxicity assay, single and combination with paclitaxel; type: cell-based; details: for killing of MDA-MB231TaxR compared with parental MDA-MB231: TaxR selected in 100.0 nM paclitaxel
Procedure: All of the cell lines used were purchased from ATCC and cultured in RPMI-1640 supplemented with 10% fetal bovine serum and antibiotics (100 units penicillin/100 μg/ml streptomycin), unless stated otherwise. 1845B5 and MCF-10A non-cancer breast cell lines were cultured in DME/F12 medium supplemented with 10% fetal bovine serum, antibiotics and growth factors. […] The human small cell lung carcinoma H69 cell line and its multidrug-resistant MRP1-overexpressing isogenic H69AR cell line were purchased from ATCC. […] H69 cells grow as large multi-cell aggregates, making it difficult to accurately count cell numbers. […] The IL-6 dependent bortezomib-resistant ANBL6-BR cell line was further supplemented with 1 ng/ml of IL-6. The MCF10AT1 and MCF10CA1a cell lines are isogenic to the MCF10A cell line, and obtained from Dr. Valerie Weaver at the Center for Bioengineering and Tissue Regeneration, UCSF, CA, USA. MCF10AT1 is a premalignant cell line generated by transforming MCF10A with c-Ha-Ras; and MCF10CA1a was isolated by selecting malignant cells after MCF10AT1 cells were engrafted into mice (Liu & Lin 2004; […] et al. 2009). […] The drug-resistant cells were cultured in the absence of drug for at least one passage before carrying out experiments. All cells were maintained in a humidified incubator at 37° C. […] Cell line authentication was performed using short tandem repeat (STR) profiling. For (anti)proliferation assays, 4,000-5,000 cells/well of the 96-well clustered dish were incubated for 16 hours, as described previously (Hu et al., 2008; Skehan et al., 1990). […] Some wells were treated with 100 μl of 10% trichloroacetic acid (TCA) as a negative control and sham (medium with dimethyl sulfoxide; DMSO) treated cells were used as a positive control. […] TCA was removed and cells were washed with cold tap water, and plate was air-dried, followed by addition of 50 μl of 0.4% SRB staining solution to each well. After 30 minutes incubation, SRB staining solution was removed. Cells were washed with 1% acetic acid solution, and then washed with tap water to remove unbound staining solution, followed by air-drying. 200 μl of 10 mM (pH10.5) trizma base buffer was added to each well to solubilise macromolecules. […] Cell growth (inhibition) was calculated by the following formula: % cells proliferation=[(AT-CT)/(ST-CT)]×100 wherein AT=absorbance of treated cells, CT=absorbance of negative control cells, and ST=absorbance of sham treated cells. […] The combinational index (CI) was calculated as described previously (Chou 2006). […] CI values were determined from four independent experiments.

H69AR = assay: SRB-based cytotoxicity assay; type: cell-based, human; details: for Resistance (fold): H69AR versus SW-1271; for IC50: Homo sapiens, H69AR, multidrug-resistant
Procedure: 1845B5 and MCF-10A non-cancer breast cell lines were cultured in DME/F12 medium supplemented with 10% fetal bovine serum, antibiotics and growth factors. […] The human small cell lung carcinoma H69 cell line and its multidrug-resistant MRP1-overexpressing isogenic H69AR cell line were purchased from ATCC. […] H69 cells grow as large multi-cell aggregates, making it difficult to accurately count cell numbers. […] The IL-6 dependent bortezomib-resistant ANBL6-BR cell line was further supplemented with 1 ng/ml of IL-6. The MCF10AT1 and MCF10CA1a cell lines are isogenic to the MCF10A cell line, and obtained from Dr. Valerie Weaver at the Center for Bioengineering and Tissue Regeneration, UCSF, CA, USA. […] The drug-resistant cells were cultured in the absence of drug for at least one passage before carrying out experiments. All cells were maintained in a humidified incubator at 37° C. […] Cell line authentication was performed using short tandem repeat (STR) profiling. […] Some wells were treated with 100 μl of 10% trichloroacetic acid (TCA) as a negative control and sham (medium with dimethyl sulfoxide; DMSO) treated cells were used as a positive control. […] TCA was removed and cells were washed with cold tap water, and plate was air-dried, followed by addition of 50 μl of 0.4% SRB staining solution to each well. After 30 minutes incubation, SRB staining solution was removed. Cells were washed with 1% acetic acid solution, and then washed with tap water to remove unbound staining solution, followed by air-drying. 200 μl of 10 mM (pH10.5) trizma base buffer was added to each well to solubilise macromolecules. […] Cell growth (inhibition) was calculated by the following formula: % cells proliferation=[(AT-CT)/(ST-CT)]×100 wherein AT=absorbance of treated cells, CT=absorbance of negative control cells, and ST=absorbance of sham treated cells. […] CI values were determined from four independent experiments.

Kidney histology (H&E) = type: in vivo, mice; details: day 30; paclitaxel 10 mg/kg; CTR 30 mg/kg; or paclitaxel 5 mg/kg + CTR 15 mg/kg
Procedure: Animals were monitored for food and water consumption every day, and their body weights and tumor volumes were measured twice per week. Tumor volumes were measured with a digital caliper and were determined by using the following formula: ½ length×width^2. Blood samples were collected via cardiac puncture and processed further for ALT and AST measurements. The animals were then immediately euthanized by carbon dioxide. Tumors and vital organs (spleen, kidney, liver and lung) were collected and fixed in 10% buffered formalin at 4° C. overnight before being processed for paraffin embedding. The paraffin-embedded blocks were then cut into 4-5 μm thick sections. Each section of tumors and organs was stained with hematoxylin and eosin (H&E).
Changes in body weight, hemoglobin (Hb) and the amount and ratio of alanine transaminase (ALT)/aspartate transaminase (AST) were used to measure toxic effects. In addition, vital organs (liver, spleen, kidney and lung) were analyzed by […] after they were harvested, fixed, processed, paraffin-embedded, sectioned, and stained as described above.
ATH490 mice were treated as described in Table 11. At day 30, kidneys were harvested, stained with H&E, and observed under a Zeiss EPI-fluorescent microscope (40× objective).

| Compound | killing of MDA-MB231TaxR compared with parental MDA-MB231 (MDA-MB231TaxR) | Cell survival rate (MDA-MB231TaxR; single agent 23.4 nM) | Resistance (fold) (H69AR) | Cell survival rate (MDA-MB231TaxR; single agent 18.75 nM) | Cell survival rate (MDA-MB231TaxR; single agent 37.5 nM) | Cell survival rate (MDA-MB231TaxR; single agent 75.0 nM) | Cell survival rate (MDA-MB231TaxR; single agent 150 nM) | Cell survival rate (MDA-MB231TaxR; single agent 300 nM) | effects on the kidney (Kidney histology (H&E)) | IC50 (H69AR) | Cell survival rate (MDA-MB231TaxR; single agent 0.3 μM) |
| --- | --- | --- | --- | --- | --- | --- | --- | --- | --- | --- | --- |
| CCOc1ccccc1C(=O)/C=C/c1cc2ccccc2[nH]c1=O [CTR-32, (E)-3-(3-(2-ethoxyphenyl)-3-oxoprop-1-enyl)quinolin-2(1H)-one] | to the same degree as the parental MDA-MB231 cells | 53.07 ± 6.50 | – | – | – | – | – | – | – | – | – |
| CC(=O)O[C@H]1C(=O)[C@@]2(C)[C@H]([C@H](OC(=O)c3ccccc3)[C@]3(O)C[C@H](OC(=O)[C@H](O)[C@@H](NC(=O)c4ccccc4)c4ccccc4)C(C)=C1C3(C)C)[C@]1(OC(C)=O)CO[C@@H]1C[C@@H]2O [Paclitaxel, reference compound] | – | – | 2.44 fold | 95.84 ± 1.86 | 90.28 ± 3.58 | 90.98 ± 4.49 | 82.41 ± 5.00 | 57.75 ± 3.78 | approximately 1 out of 5 mice showed renal abnormalities | – | – |
| COc1ccccc1C(=O)/C=C/c1cc2ccccc2[nH]c1=O [CTR-17, (E)-3-(3-(2-Methoxyphenyl)-3-oxoprop-1-enyl)quinolin-2(1H)-one] | to the same degree as the parental MDA-MB231 cells | – | 0.45 fold | – | – | – | – | – | generally did not cause any notable ill-effects to the kidney | 0.52 ± 0.1 µM | – |
| COc1ccc2[nH]c(=O)c(/C=C/C(=O)c3ccccc3OC)cc2c1 [CTR-20, (E)-6-Methoxy-3-(3-(2-methoxyphenyl)-3-oxoprop-1-enyl) quinolin-2(1H)-one] | to the same degree as the parental MDA-MB231 cells | – | 0.13 fold | – | – | – | – | – | generally did not cause any notable ill-effects to the kidney | 0.13 ± 0.01 µM | 63.7 ± 2.52 |
| COc1ccccc1C(=O)/C=C/c1cc2cccc(OC)c2[nH]c1=O [CTR-21, (E)-8-methoxy-3-(3-(2-methoxyphenyl)-3-oxoprop-1-enyl) quinolin-2(1H)-one] | to the same degree as the parental MDA-MB231 cells | 52.10 ± 3.71 | – | – | – | – | – | – | – | – | – |
